Among the test systems are OVCAR-8 ovarian; IGROV1 ovarian; T-47D breast; NCI-H522 lung; UO-31 renal; SK-MEL-5 melanoma; RPMI-8226 leukemia; RXF 393 renal; SN12C renal; DU-145 prostate; OVCAR-5 ovarian; HCC-2998 colon; SW-620 colon; OVCAR-4 ovarian; NCI-H460 lung; HS 578T breast; HCT-116 colon; EKVX NSCLC; MCF7 breast; SNB-19 CNS.
What all share (assay): NCI-60 cell line screen, 48 h

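A five-concentration, 48-hour dose response in 96-well plates underlies each endpoint, interpolated linearly between surrounding concentrations. Definition used: TGI = concentration required for complete inhibition of growth.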

For `COC(=O)C1=NN2c3ccccc3C(=O)OCCC2(C)C1` (stereo not given), the TGI with OVCAR-8 ovarian, with IGROV1 ovarian, with T-47D breast, with NCI-H522 lung, in the experiment with UO-31 renal and with SK-MEL-5 melanoma was over 100 µM in each case. The TGI in the experiment with RPMI-8226 leukemia, in the experiment on RXF 393 renal, in the experiment with SN12C renal, with DU-145 prostate, in the experiment on OVCAR-5 ovarian and with HCC-2998 colon was over 100 µM throughout. The TGI in the experiment on SW-620 colon, in the experiment on OVCAR-4 ovarian, in the experiment on NCI-H460 lung, in the experiment on HS 578T breast, in the experiment on HCT-116 colon and with EKVX NSCLC was over 100 µM each time. Also, the TGI with MCF7 breast was over 100 µM.

For the compound `COC1=NC(NC2OCC(O)C(O)C2O)=C(NC(C)=O)CN1C` (stereo not given), the TGI with OVCAR-8 ovarian, in the experiment on T-47D breast, with NCI-H522 lung, in the experiment with UO-31 renal, in the experiment with SK-MEL-5 melanoma and in the experiment with RPMI-8226 leukemia was over 100 µM in each case. In addition, the TGI in the experiment on RXF 393 renal, in the experiment on DU-145 prostate, in the experiment with OVCAR-5 ovarian, in the experiment with SNB-19 CNS, in the experiment on HCC-2998 colon and in the experiment with SW-620 colon was over 100 µM in each case. For the same compound, the TGI with OVCAR-4 ovarian, with NCI-H460 lung, in the experiment on HS 578T breast, in the experiment on HCT-116 colon, in the experiment on EKVX NSCLC and in the experiment with MCF7 breast was over 100 µM each time.

On to `CN(/N=C/c1cccs1)c1ccc(Cl)cc1[N+](=O)[O-]`, for which the TGI with OVCAR-8 ovarian is over 100 µM; with IGROV1 ovarian it was over 100 µM; in the experiment with T-47D breast, over 100 µM; in the experiment on NCI-H522 lung it was 69.5 µM; in the experiment with UO-31 renal it was over 100 µM; in the experiment with SK-MEL-5 melanoma, over 100 µM. Also, the TGI in the experiment on RPMI-8226 leukemia, with RXF 393 renal, with SN12C renal, in the experiment with DU-145 prostate, with SNB-19 CNS and in the experiment with HCC-2998 colon was over 100 µM throughout. Also, the TGI with SW-620 colon was over 100 µM; in the experiment with OVCAR-4 ovarian, over 100 µM; in the experiment with NCI-H460 lung, over 100 µM; with HS 578T breast, 76.2 µM; in the experiment on HCT-116 colon, over 100 µM; in the experiment with EKVX NSCLC it was over 100 µM. The TGI in the experiment on MCF7 breast is over 100 µM.

In the case of `O=CN1CCN(C(=O)c2cc(Cl)cc(Cl)c2)C1=S`, the TGI with OVCAR-8 ovarian came out at 33.6 µM; in the experiment on IGROV1 ovarian, 34.7 µM; in the experiment with T-47D breast, 36.7 µM; with NCI-H522 lung, 15.4 µM; with RPMI-8226 leukemia, 5.64 µM; with RXF 393 renal, 30.6 µM. Besides, the TGI in the experiment with SN12C renal is 31 µM; in the experiment with DU-145 prostate, 37.5 µM; in the experiment on OVCAR-5 ovarian, 44.2 µM; in the experiment with SNB-19 CNS it was 35 µM; in the experiment on HCC-2998 colon it was 31.9 µM; in the experiment on SW-620 colon, 49.3 µM. The TGI came out at 33.4 µM in the experiment with OVCAR-4 ovarian; 51.2 µM in the experiment on NCI-H460 lung; 71.4 µM in the experiment on HS 578T breast; 32.7 µM in the experiment on HCT-116 colon; 32.3 µM in the experiment with EKVX NSCLC; 20.8 µM with MCF7 breast.

As to `Cc1cn(C2CC(O)C(Cn3cc(Cn4ncc(=O)[nH]c4=O)nn3)O2)c(=O)[nH]c1=O` (stereo not given), the TGI in the experiment with OVCAR-8 ovarian, in the experiment on IGROV1 ovarian, in the experiment with T-47D breast, in the experiment on NCI-H522 lung, in the experiment on UO-31 renal and in the experiment on SK-MEL-5 melanoma was over 100 µM throughout. Further, the TGI in the experiment on RPMI-8226 leukemia, in the experiment with RXF 393 renal, in the experiment with SN12C renal, in the experiment with DU-145 prostate, in the experiment on OVCAR-5 ovarian and in the experiment with SNB-19 CNS was over 100 µM throughout. For the same compound, the TGI with HCC-2998 colon, in the experiment with SW-620 colon, in the experiment on OVCAR-4 ovarian, with HS 578T breast, in the experiment with HCT-116 colon and in the experiment with EKVX NSCLC was over 100 µM in each case. The TGI in the experiment on MCF7 breast is over 100 µM.

With `COC1O[C@@H]2CCN3C(=O)[C@@H](OC(=O)c4ccc([N+](=O)[O-])cc4)[C@H]1C23` (stereo not given in full), the TGI in the experiment on OVCAR-8 ovarian, in the experiment on IGROV1 ovarian, with T-47D breast, with NCI-H522 lung, in the experiment on UO-31 renal and in the experiment with SK-MEL-5 melanoma was over 100 µM each time. The TGI in the experiment on RPMI-8226 leukemia, in the experiment with RXF 393 renal, in the experiment with SN12C renal, in the experiment on DU-145 prostate, with OVCAR-5 ovarian and in the experiment with HCC-2998 colon was over 100 µM each time. Also, the TGI with SW-620 colon, in the experiment on NCI-H460 lung, with HS 578T breast, with HCT-116 colon, in the experiment on EKVX NSCLC and in the experiment on MCF7 breast was over 100 µM throughout.

`Nc1cc2c3c(cccc3c1)C(=O)N(c1ccc(OCCN3CCCCC3)cc1)C2=O`: the TGI in the experiment with OVCAR-8 ovarian worked out at 36.4 µM; with IGROV1 ovarian it was 34.4 µM; with T-47D breast, 46.6 µM; in the experiment with NCI-H522 lung, 35.2 µM; in the experiment with UO-31 renal, 24.1 µM; in the experiment on SK-MEL-5 melanoma, 35.2 µM. For the same compound, the TGI in the experiment with RPMI-8226 leukemia was 41.7 µM; in the experiment with RXF 393 renal, 35.7 µM; in the experiment on SN12C renal, over 54.3 µM; in the experiment on DU-145 prostate, 33.5 µM; with OVCAR-5 ovarian, 44 µM; in the experiment on SNB-19 CNS, 32.4 µM. In addition, the TGI with HCC-2998 colon was 34 µM; in the experiment on SW-620 colon, 48.5 µM; with OVCAR-4 ovarian it was 35.7 µM; with HS 578T breast it was 63.4 µM; in the experiment with HCT-116 colon it was 51.7 µM; in the experiment with EKVX NSCLC, 45.7 µM. Also, the TGI in the experiment with MCF7 breast is 36.3 µM.
